Measurements published in the pKa sets of Baltruschat and Czodrowski (2020).

Structure (SMILES) | pKa (acidic group) | pKa (basic group)
Nc1ccc(O)c(N)c1 | 10.4 | 5.7
CN(C)c1cc[n+](O)cc1 | 3.9 | -7.58
COc1cccc(CN(C)C)c1O | – | 8.42
Cc1ccc([N+](=O)[O-])c(C(=O)O)c1 | 2.55 | –
CC(C)CS(=O)O | 2.75 | –
CSc1nc2cncnc2n1C | – | 2.98
c1ccc(C2=NSC(N3CCOCC3)=NS2)cc1 | – | 8.33
O=C(O)[C@H]1C[C@@H]1Cl | 4.12 | –
CCC(=O)c1cc(C(=O)C(C)(C)C)n[nH]1 | 9.7 | –
Cn1nc([N+](=O)[O-])nc1NN=O | 3.22 | –
Cc1ccccc1/C(=N\CCCN(C)C)c1ccccc1-c1ccccc1 | – | 9.25
CCN(Cl)CC | – | 1.02
Cc1ccc(S(=O)(=O)NCC(=O)[O-])cc1 | 11.4 | –
C[C@H]1O[C@H](O[C@H]2CC[C@H]([n+]3ccc(N)nc3O)O[C@@H]2C)[C@H](O)[C@@H](O)[C@@H]1[NH+](C)C | 3.9 | –
CC(Cl)CN(C)C (centres undefined) | – | 8.12
Brc1ccccc1-c1nnn[nH]1 | 3.83 | –
Cc1ccc(C(O)CN)cc1 (centres undefined) | – | 9.06
NCCC(=O)NC(Cc1c[nH]cn1)C(=O)[O-] (centres undefined) | – | 9.48
O=C1O[C@@H]([C@H](O)CO)C([O-])=C1O | 11.6 | –
Nc1ccc(S(=O)(=O)Nc2ccc(C(=O)O)cc2)cc1 | 4.02 | –
O=Cc1cccc(B(O)O)c1 | 7.8 | –
CC1(C)CN1 | – | 5.37
O=C(O)C(CO)[NH2+]Cc1cc([N+](=O)[O-])ccc1O (centres undefined) | 2.15 | –
NCCN1CCOCC1 | – | 9.45

Structure (SMILES) | pKa (acidic group) | pKa (basic group)
O=S(=O)(Cc1ccccc1)c1ncc[nH]1 | 8.67 | –
CNC(C)=S | – | -1.9
Cc1cc(C)n(-c2cc(C)n(C)[nH+]2)n1 | – | -2.9
O=P1(O)CCCC1 | 2.51 | –
O=C(CCN1CCOCC1)c1cccc([N+](=O)[O-])c1 | – | 6.5
O=C([O-])[C@@H]1Cc2[nH]cnc2CN1 | – | 8.58
CC[NH+]1CCC[C@@H]1CNC(=O)c1c(O)cccc1OC | 8.7 | –
CSc1ccc(N)c(Cl)c1 | – | 2.56
Nc1nc2ccccc2nc1N | – | 4.7
CC(C(=O)O)C(C#N)c1ccccc1 (centres undefined) | 3.7 | –
Nc1ccc2cccnc2c1 | – | 6.65
CC(C)CCCN(C)CCCNC(=O)/C=N/[O-] | – | 10.2
O=C(O)C1COCCO1 (centres undefined) | 3.15 | –
Cc1cc([S-])ncn1 | – | 7.3
COc1ccc2nc3c(c(N4CCOCC4)c2c1)CCC3 | – | 7.14
Cc1cc(C)nc(NS(=O)(=O)c2ccc(O)cc2)n1 | 7.52 | –
CCCCCCCCCCCCCCCCCc1c2ccccc2nc2ccccc12 | – | 5.5
CC(C)CCP(=O)(O)CCC(C)C | 3.26 | –
CC(C)(C)C(=O)NC(O)C(Cl)(Cl)Cl (centres undefined) | 14.7 | –
C[N+](C)(C)CCC[N+](C)(C)CCCNC(=O)/C=N/O | 8.31 | –
CCCC[Se](=O)O | 5.29 | –
CN(C)S(=O)(=O)c1ccc(N)cc1 | – | 1.53
C[NH+](C)CCC/N=C(\c1ccccc1)c1ccccc1Cl | – | 3.46
CNc1cc[nH+]c([O-])n1 | – | 4.55

Structure (SMILES) | pKa (acidic group) | pKa (basic group)
c1nc[nH]n1 | – | 2.5
O=C1NC(=O)[C@H](CSSC[C@@H]2NC(=O)NC2=O)N1 | 8.1 | –
C[C@@H]1N[C@@H]1C | – | 5.34
CC[NH+](CC)Cc1cc(Cl)cc(Cl)c1O | 5.95 | –
CCCCCCCCCCN | – | 10.6
CCNc1nc(N)nc(NCC)n1 | – | 5.52
CCN(CC)Cc1ccccc1OC | – | 10.2
c1cnc2c(c1)c1c(c3cccnc32)CCCC1 | – | 5.3
S=C(S)N1CCCC1 | 2.97 | –
Nc1nccs1 | – | 5.44
CC(=O)c1cc(C(C)=O)[nH]n1 | 8.98 | –
O=c1oc2cc(O)ccc2cc1-c1nc2ccccc2o1 | 6.84 | –
NCCCC[NH2+]CCCN | – | 9.86
[O-][n+]1cnc2[nH]cnc2c1NCc1ccccc1 | 8.22 | 2.66
CCNCCNCC | – | 10.5
NS(=O)(=O)c1nc2ccccc2s1 | 7.8 | –
Cc1c[nH]c(C)c1C | – | 3.94
CSc1ccc2ncccc2c1 | – | 4.75
CCCNN | – | 7.92
NNC(=O)C1(F)C(F)(F)C(F)(F)C(F)(F)C(F)(F)C1(F)F | 9.14 | –
CN(C)c1ccc(NC=S)cc1 | 12 | –
CC(C)[C@H]1C[NH2+][C@H](C(=O)O)[C@H]1CC(=O)O | 2.12 | –
C#CCCCCN | – | 10.5
CCCOC(=S)NC(C)=O | 9.34 | –

Structure (SMILES) | pKa (acidic group) | pKa (basic group)
NC(=O)c1cc(-c2ccccc2)nnc1NCC[NH+]1CCOCC1 | – | 2.5
[NH3+]CCc1ccc(O)cc1 | 9.42 | –
CCC/C=C/C(=O)O | 4.71 | –
COc1ccc2c3c1O[C@H]1[C@@H](O)C=C[C@H]4[C@@H](C2)N(C)CC[C@@]341 | – | 8.05
Oc1ccc(F)cc1CN1CCOCC1 | 10.5 | 6.78
COP(=O)([O-])NS(C)(=O)=O | 6.55 | –
COc1c(Cl)cc(Cl)c(O)c1C(=O)NC1CC[NH+](C)CC1 | 6.02 | –
CCN1CC(O[Si](C)(C)C)C1 | – | 8.68
N[C@@H](Cc1c[nH]c2ccccc12)C(=O)[O-] | – | 9.31
Oc1cccc(Br)c1 | 8.99 | –
Cc1cc(NCCC[NH+](C)C)c2c([N+](=O)[O-])cccc2n1 | – | 6.41
CC(CO)CN(C)C (centres undefined) | – | 9.75
O=C(O)c1cccc(Oc2ccccc2)c1 | 3.95 | –
O/N=C/c1ccc(O)cc1 | 8.78 | –
Nc1ncc(Sc2ccccc2)s1 | – | 4.16
Cc1cc2ncn([C@H]3OC[C@@H](O)[C@@H](O)[C@@H]3O)c2cc1C | – | 4.58
CC(C)COc1ccc(C(=O)O)cc1 | 4.48 | –
COc1nc2ccccc2c2ccccc12 | – | 2.38
CC[NH+](CC)CCCC(C)Nc1cc[nH+]c2ccc(OC)cc12 (centres undefined) | – | -7.83
CCCCCN(CC(C)O)CC(O)CC (centres undefined) | – | 9.1
CCCCCCCCCCN(CC(O)CC)CC(O)CC (centres undefined) | – | 6.6
NCCCNCCO | – | 10.3
O=C(O)CC1CCCCC1 | 4.8 | –
NCc1ccc(O)c(O)c1 | – | 8.6

Structure (SMILES) | pKa (acidic group) | pKa (basic group)
COc1cc(S(C)=O)ccc1-c1nc2cnccc2[nH]1 (centres undefined) | – | 6.16
Nc1ccnc2c1ncn2CCOCP(=O)([O-])O | – | 5.52
N/C(CC(N)c1ccccc1)=N\O (centres undefined) | – | 8
CCc1nnn[nH]1 | 5.59 | –
c1ccc(-c2[nH]cc[nH+]2)nc1 | – | 0.6
O=NNc1nc([N+](=O)[O-])nn1-c1ccccc1 | 3.33 | –
O=[Se](O)c1ccc2ccccc2c1 | 4.67 | –
Cc1cc(Cc2cc([N+](=O)[O-])ccc2[O-])cc(C)c1O | 10.9 | –
C#CCCCCN(C)C | – | 9.24
NOCc1ccc([N+](=O)[O-])cc1 | – | 3.96
C(COCCc1nnn[nH]1)OCCc1nnn[nH]1 | – | 4.79
NCCC[n+]1ccc2ccccc2c1 | – | 8.97
CC(C)N(CC1CO1)CC1CO1 (centres undefined) | – | 7.07
Cc1ccccc1C[N+](=O)[O-] | 7.6 | –
N#CCCNC(CC(N)=O)C(=O)O (centres undefined) | 6.46 | –
Oc1cc[nH+]cc1O | 3.6 | –
C[Si](C)(C)CNC1CCCCC1 | – | 11
N#CC(C(=O)O)C1CCCCC1 (centres undefined) | 2.37 | –
O=S(=O)(Nc1ccccn1)c1ccccc1 | 8.2 | –
c1ccc(-c2ccoc2)nc1 | – | 4.65
CC(C)c1nnn[nH]1 | 5.55 | –
c1ccc(-c2ccc3nc(C[NH+]4CCOCC4)cn3n2)cc1 | – | 1.4
Cc1cn(C)nc1C | – | 3.56
Cc1cc(N)nc(Nc2ccc(Cl)cc2)n1 | – | 6.6

Structure (SMILES) | pKa (acidic group) | pKa (basic group)
COCc1ccccc1C(=O)O | 3.85 | –
Nc1nnnn1-c1ccc([N+](=O)[O-])cc1 | – | 0.34
CN(C)c1ncnc2c1cnn2C | – | 4.06
c1ccc(CNc2nc[nH+]c3[nH]cnc23)cc1 | – | -1
C[Si](C)(C)OC1CN(Cc2ccc(Cl)cc2)C1 | – | 7.72
CCC/C=C(\C)C(=O)O | 5.13 | –
Cc1ccc(NS(=O)(=O)c2ccccc2)cc1 | 8.63 | –
COc1ccc(NC(C)=S)cc1 | 12 | –
CSc1ccc(N)cc1 | – | 4.4
CCOc1ccccc1N | – | 4.51
[NH3+]Cc1ccc(F)c(O)c1 | 8 | –
CCOc1ccc(/N=C/N(C)C)cc1 | – | 9.24
CCSCCN | – | 9.48
CC1=CC(C)=Nc2ccc(C)cc2N1 | 5.8 | 3.5
OCCNC1CCN(Cc2ccccc2)CC1 | – | 9.24
CC(C)N(c1ccccc1)C(C)C | – | 6.19
NC(=O)CC(=O)c1ccccn1 | – | 8.23
Nc1cc(-c2ccccc2)nc2ccccc12 | – | 8.2
Nc1cccc2cnccc12 | – | 5.59
O=c1cc(-c2ccc(O)cc2)ss1 | 8.27 | –
CC1CCC(O)(C(C(=O)O)c2ccc(-c3ccccc3)cc2)CC1 (centres undefined) | 3.45 | –
O=[N+]([O-])c1ccc(/C=N/c2ncccn2)cc1 | – | 3.12
O/N=C(/Cl)c1ccccc1 | 9.8 | –
On1nnc2cc(Cl)ccc21 | 4.18 | –

Structure (SMILES) | pKa (acidic group) | pKa (basic group)
O=C1C=C(S(=O)(=O)[O-])/C(=N/O)c2[nH]ncc21 | 7.15 | –
Cc1nnn[nH]1 | 5.52 | –
Oc1ccnc([Se-])[nH+]1 | 7.18 | –
O=C(O)CCc1ccc(Cl)cc1 | 4.65 | –
CCCCC(N)C(=O)[O-] (centres undefined) | – | 9.89
Nc1nc(O)[n+]([C@@H]2C[C@@H](O)[C@H](CO)O2)cc1CO | 3.55 | –
O=c1[nH]c2ccccc2[nH]c1=O | 9.67 | –
CC(=O)C(C)C(=O)C(C)C (centres undefined) | 11.8 | –
Cn1cncc1C[C@H](N)C(=O)[O-] | – | 8.72
NC(=O)CN(CCN(CC(N)=O)Cc1ccccc1O)Cc1ccccc1O | 10.2 | 6.54
CCCc1nc2cc(OCC)ccc2[nH]1 | – | 6.12
C(=C\CN1CCCCC1)/CN1CCCCC1 | – | 9.7
CC(C)CSCCN | – | 8.73
CC(C)(C)OC(=O)NS(=O)(=O)c1ccc(S(C)(=O)=O)cc1 | 3.76 | –
Cc1ccc([N+](=O)[O-])cc1/C(=N/CCCN(C)C)c1ccccc1 | – | 8.8
O=C([O-])CC(c1ncc[nH]1)c1ncc[nH]1 | – | 6.9
COc1cncnc1[O-] | – | 8.6
O=C([O-])CS | 10.2 | –
CCN(CC)CCCCNc1ccnc2ccccc12 | – | 10.2
C[NH+](C)Cc1cc(Br)ccc1O | 7.58 | –
C=C[C@]1(O)C[C@@H](C)N[C@H]2CCCC[C@@H]21 | – | 9.51
O=C(O)Cc1nnn[nH]1 | 3.1 | –
Oc1ccc(/C=N/c2ncc3nc[nH]c3n2)cc1 | 8.62 | 3.27
